Assay results as given in PubChem BioAssay AID256 (DTP/NCI, 2004).
Where “and” joins values, the source holds several entries; their conditions need not be identical. Identical values can stand only once. Inconclusive results and toxic doses are left out. The calls were made as follows: active = survival T/C of 150% or more; inactive = T/C below 125% in these data.

Tested on: CD2F1 mice, L1210 leukemia ip, survival T/C
Assay: NCI In Vivo Anticancer Drug Screen. Data for tumor model L1210 Leukemia (intraperitoneal) in CD2F1 (CDF1) mice
Details: higher = longer survival
Outline: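 Read-out first: treated-group measurement over vehicle-control measurement, expressed as a ratio. Animals bore a transplanted tumor line and were dosed with compound or vehicle.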

[1] = endpoint: median survival time, dose: 50.0 mg/kg/injection, schedule: Q01DX005 (ip), vehicle: saline
[2] = endpoint: median survival time, dose: 100.0 mg/kg/injection, schedule: Q01DX005 (ip), vehicle: saline
[3] = endpoint: median survival time, dose: 200.0 mg/kg/injection, schedule: Q01DX005 (ip), vehicle: saline
[4] = endpoint: mean survival time, dose: 50.0 mg/kg/injection, schedule: Q01DX009 (ip), vehicle: saline with Tween-80
[5] = endpoint: mean survival time, dose: 100.0 mg/kg/injection, schedule: Q01DX009 (ip), vehicle: saline with Tween-80
[6] = endpoint: mean survival time, dose: 200.0 mg/kg/injection, schedule: Q01DX009 (ip), vehicle: saline with Tween-80
[7] = endpoint: mean survival time, dose: 20.0 mg/kg/injection, schedule: Q01DX001 (ip), vehicle: saline
[8] = endpoint: mean survival time, dose: 100.0 mg/kg/injection, schedule: Q01DX001 (ip), vehicle: saline
[9] = endpoint: mean survival time, dose: 150.0 mg/kg/injection, schedule: Q01DX001 (ip), vehicle: saline
[10] = endpoint: mean survival time, dose: 12.5 mg/kg/injection, schedule: Q01DX009 (ip), vehicle: saline with Tween-80
[11] = endpoint: mean survival time, dose: 25.0 mg/kg/injection, schedule: Q01DX009 (ip), vehicle: saline with Tween-80
[12] = endpoint: mean survival time, dose: 100.0 mg/kg/injection, schedule: Q04DX003 (ip), vehicle: saline with Tween-80
[13] = endpoint: mean survival time, dose: 200.0 mg/kg/injection, schedule: Q04DX003 (ip), vehicle: saline with Tween-80
[14] = endpoint: mean survival time, dose: 400.0 mg/kg/injection, schedule: Q04DX003 (ip), vehicle: saline with Tween-80
[15] = endpoint: mean survival time, dose: 400.0 mg/kg/injection, schedule: Q01DX009 (ip), vehicle: saline with Tween-80
[16] = endpoint: mean survival time, dose: 100.0 mg/kg/injection, schedule: Q01DX001 (ip), vehicle: saline with Tween-80
[17] = endpoint: mean survival time, dose: 200.0 mg/kg/injection, schedule: Q01DX001 (ip), vehicle: saline with Tween-80
[18] = endpoint: mean survival time, dose: 400.0 mg/kg/injection, schedule: Q01DX001 (ip), vehicle: saline with Tween-80

Measured: T/C

[N-]=[N+]=NC1CC(n2ccc(=O)[nH]c2=O)OC1CO (stereo not given)
inactive: endpoint: median survival time, dose: 12.5 mg/kg/injection, schedule: Q01DX005 (ip), vehicle: saline 101 % of control | endpoint: median survival time, dose: 25.0 mg/kg/injection, schedule: Q01DX005 (ip), vehicle: saline 102 % of control | [1] 100 % of control | [2] 94 % of control | [3] 100 % of control

COc1ccc(OCCOC(=O)Nc2ccc(Cl)cc2OC)cc1
inactive: [4] 89 % of control | [5] 93 % of control | [6] 93 % of control

CN(N=O)C(=O)NC1C(CO)OC(n2ccc(=O)[nH]c2=O)C1O (stereo not given)
inactive: endpoint: mean survival time, dose: 13.0 mg/kg/injection, schedule: Q01DX001 (ip), vehicle: saline 105 % of control | [7] 107 % of control | endpoint: mean survival time, dose: 30.0 mg/kg/injection, schedule: Q01DX001 (ip), vehicle: saline 110 % of control | endpoint: mean survival time, dose: 44.0 mg/kg/injection, schedule: Q01DX001 (ip), vehicle: saline 111 % of control | endpoint: mean survival time, dose: 67.0 mg/kg/injection, schedule: Q01DX001 (ip), vehicle: saline 107 % of control | [8] 122 % of control | [9] 121 % of control

CCCCOC(=O)/C=C(\Br)C(=O)OCCCC
inactive: endpoint: mean survival time, dose: 6.25 mg/kg/injection, schedule: Q01DX009 (ip), vehicle: saline with Tween-80 92 % of control and 96 % of control | [10] 94 % of control and 105 % of control | [11] 95 % of control and 100 % of control | [4] 100 % of control | [5] 92 % of control

O=[N+]([O-])c1ccc2cn[nH]c2c1
inactive: endpoint: mean survival time, dose: 100.0 mg/kg/injection, schedule: Q01DX001 (ip), vehicle: alcohol 92 % of control | endpoint: mean survival time, dose: 200.0 mg/kg/injection, schedule: Q01DX001 (ip), vehicle: alcohol 98 % of control | endpoint: mean survival time, dose: 400.0 mg/kg/injection, schedule: Q01DX001 (ip), vehicle: alcohol 93 % of control

CCOC(=O)C1CNC(=O)C1=O (stereo not given)
inactive: [8] 106 % of control | [12] 100 % of control | endpoint: mean survival time, dose: 200.0 mg/kg/injection, schedule: Q01DX001 (ip), vehicle: saline 110 % of control | [13] 101 % of control | endpoint: mean survival time, dose: 400.0 mg/kg/injection, schedule: Q01DX001 (ip), vehicle: saline 106 % of control | [14] 95 % of control

Cc1csc2nc[nH]c(=O)c12
inactive: [5] 97 % of control | [6] 98 % of control | [15] 105 % of control

CC(C)CC1(C(C)C)C(=O)NC(=S)NC1=O
inactive: endpoint: mean survival time, dose: 5.0 mg/kg/injection, schedule: Q01DX001 (ip), vehicle: saline 102 % of control | endpoint: mean survival time, dose: 10.0 mg/kg/injection, schedule: Q01DX001 (ip), vehicle: saline 96 % of control | [7] 98 % of control | endpoint: mean survival time, dose: 40.0 mg/kg/injection, schedule: Q01DX001 (ip), vehicle: saline 101 % of control

Nc1ncnc(N)c1N=O
inactive: [12] 96 % of control | [13] 89 % of control

NNc1ccnc2[nH]ncc12
inactive: endpoint: mean survival time, dose: 6.25 mg/kg/injection, schedule: Q01DX005 (ip), vehicle: saline with Tween-80 106 % of control | endpoint: mean survival time, dose: 12.5 mg/kg/injection, schedule: Q01DX005 (ip), vehicle: saline with Tween-80 103 % of control | endpoint: mean survival time, dose: 25.0 mg/kg/injection, schedule: Q01DX005 (ip), vehicle: saline with Tween-80 101 % of control

Cc1cc(Cl)ccc1NC(=O)N1CCCC(C)C1 (stereo not given)
inactive: [10] 95 % of control | [11] 102 % of control | [4] 91 % of control

COc1cc2c3c(c1)/C(=N\NC(N)=S)CCN3CCC2
inactive: [16] 93 % of control | [17] 105 % of control | [18] 93 % of control

CCCCCCCCCCCCCCCCCC(=O)N1CC[N+](C)(C)CC1
inactive: endpoint: mean survival time, dose: 75.0 mg/kg/injection, schedule: Q01DX001 (ip), vehicle: saline 101 % of control | [9] 100 % of control | endpoint: mean survival time, dose: 300.0 mg/kg/injection, schedule: Q01DX001 (ip), vehicle: saline 107 % of control

O=c1cc(-c2ccccc2)nc(N[N+](=O)[O-])[nH]1
inactive: [12] 100 % of control | [13] 94 % of control

CSc1nc2c(c(=O)[nH]1)CC(=O)N2
inactive: [1] 93 % of control | [2] 91 % of control | [3] 98 % of control

[N-]=[N+]=NC1=C(c2ccccc2)C(=O)C=C(c2ccccc2)C1=O
inactive: endpoint: mean survival time, dose: 25.0 mg/kg/injection, schedule: Q04DX003 (ip), vehicle: saline with Tween-80 94 % of control | endpoint: mean survival time, dose: 50.0 mg/kg/injection, schedule: Q04DX003 (ip), vehicle: saline with Tween-80 94 % of control | [12] 101 % of control and 102 % of control | [14] 101 % of control

Brc1ccc(-c2csc3cccc[n+]23)cc1
inactive: endpoint: mean survival time, dose: 5.0 mg/kg/injection, schedule: Q04DX003 (ip), vehicle: saline with Tween-80 93 % of control | endpoint: mean survival time, dose: 10.0 mg/kg/injection, schedule: Q04DX003 (ip), vehicle: saline with Tween-80 104 % of control | endpoint: mean survival time, dose: 20.0 mg/kg/injection, schedule: Q04DX003 (ip), vehicle: saline with Tween-80 93 % of control

CSc1cc(=O)n2c3ccccc3c3ccnc1c32
inactive: endpoint: mean survival time, dose: 1.25 mg/kg/injection, schedule: Q01DX009 (ip), vehicle: saline with Tween-80 103 % of control | endpoint: mean survival time, dose: 2.5 mg/kg/injection, schedule: Q01DX009 (ip), vehicle: saline with Tween-80 95 % of control | endpoint: mean survival time, dose: 5.0 mg/kg/injection, schedule: Q01DX009 (ip), vehicle: saline with Tween-80 97 % of control | endpoint: mean survival time, dose: 10.0 mg/kg/injection, schedule: Q01DX009 (ip), vehicle: saline with Tween-80 110 % of control

COc1cc2c(C(=O)O)cc(-c3ccc(Cl)cc3)nc2cc1Cl
inactive: [8] 98 % of control

CC(C)C[CH2][Pb]([Cl])([CH2]CC(C)C)[CH2]CC(C)C
inactive: endpoint: mean survival time, dose: 0.06 mg/kg/injection, schedule: Q01DX009 (ip), vehicle: saline 97 % of control | endpoint: mean survival time, dose: 0.12 mg/kg/injection, schedule: Q01DX009 (ip), vehicle: saline 97 % of control | endpoint: mean survival time, dose: 0.25 mg/kg/injection, schedule: Q01DX009 (ip), vehicle: saline 97 % of control | endpoint: mean survival time, dose: 0.5 mg/kg/injection, schedule: Q01DX009 (ip), vehicle: saline 100 % of control | endpoint: mean survival time, dose: 1.0 mg/kg/injection, schedule: Q01DX009 (ip), vehicle: saline 100 % of control

Cc1ccc(-n2c(=S)[nH]c3ccccc3c2=O)cc1F
inactive: [16] 92 % of control | [5] 88 % of control | [17] 92 % of control | [6] 88 % of control | [18] 89 % of control | [15] 93 % of control

NC(=Nc1ccc(Cl)cc1)/N=C(/N)N1CCN(/C(N)=N/C(N)=Nc2ccc(Cl)cc2)CC1
inactive: [4] 104 % of control | [12] 98 % of control | [13] 98 % of control

S=C=Nc1ccc(Cl)c2ccccc12
inactive: endpoint: mean survival time, dose: 12.5 mg/kg/injection, schedule: Q04DX002 (ip), vehicle: saline with Tween-80 90 % of control | endpoint: mean survival time, dose: 25.0 mg/kg/injection, schedule: Q04DX002 (ip), vehicle: saline with Tween-80 98 % of control | endpoint: mean survival time, dose: 50.0 mg/kg/injection, schedule: Q04DX002 (ip), vehicle: saline with Tween-80 102 % of control

CCOC(=O)c1c(C)cc(C)cc1C
inactive: endpoint: mean survival time, dose: 50.0 mg/kg/injection, schedule: Q01DX001 (ip), vehicle: Klucel (hydroxypropylcellulose) (HPC) 99 % of control | endpoint: mean survival time, dose: 100.0 mg/kg/injection, schedule: Q01DX001 (ip), vehicle: Klucel (hydroxypropylcellulose) (HPC) 102 % of control | endpoint: mean survival time, dose: 200.0 mg/kg/injection, schedule: Q01DX001 (ip), vehicle: Klucel (hydroxypropylcellulose) (HPC) 96 % of control

O=C(NNc1ccccc1)C(F)(F)F
inactive: [11] 107 % of control | [4] 101 % of control | endpoint: mean survival time, dose: 100.0 mg/kg/injection, schedule: Q04DX003 (ip), vehicle: acetone 93 % of control

Nc1ncnc2c1[nH]c(=O)n2C1OC(CO)C2OC21 (stereo not given)
inactive: endpoint: mean survival time, dose: 12.5 mg/kg/injection, schedule: Q01DX005 (ip), vehicle: distilled water + Tween-80 102 % of control | endpoint: mean survival time, dose: 25.0 mg/kg/injection, schedule: Q01DX005 (ip), vehicle: distilled water + Tween-80 95 % of control | endpoint: mean survival time, dose: 50.0 mg/kg/injection, schedule: Q01DX005 (ip), vehicle: distilled water + Tween-80 101 % of control | endpoint: mean survival time, dose: 100.0 mg/kg/injection, schedule: Q01DX005 (ip), vehicle: distilled water + Tween-80 92 % of control | endpoint: mean survival time, dose: 200.0 mg/kg/injection, schedule: Q01DX005 (ip), vehicle: distilled water + Tween-80 95 % of control
